Source: the supplement of paper PMC4862054
“And” between values parts separate entries of the source, which are not always exact repeats. Identical values can stand only once.

Assays:
Test in all cases: normalised viability (% of control), CellTiter-Blue; higher = more viable cells (about 100 = DMSO control)
Settings in all cases: incubation time: 72 h
MDA-MB-231 = system: MDA-MB-231
Outline: (§1)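 384-well plates were pre-loaded with compound in 5 µl medium before 20 µl of breast cancer cell suspension was seeded. Following 72 h incubation, 2.5 µl CellTiter-Blue reagent was added for 2 h at 37 °C. Fluorescence was read at 560/590 nm and plates were normalised to vehicle (100) and a positive kill control (0), checked by Z'-factor. Normalised viability is reported at a single listed concentration of the series.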

DU-4475 = system: DU-4475
Outline: as §1

MDA-MB-436 = system: MDA-MB-436
Outline: as §1

CAL-85-1 = system: CAL-85-1
Outline: as §1

CAL-51 = system: CAL-51
Outline: as §1

HDQ-P1 = system: HDQ-P1
Outline: as §1

MDA-MB-468 = system: MDA-MB-468
Outline: as §1

HCC1937 = system: HCC1937
Outline: as §1

HCC1143 = system: HCC1143
Outline: as §1

MFM-223 = system: MFM-223
Outline: as §1

SK-BR-3 = system: SK-BR-3
Outline: as §1

Hs578T = system: Hs578T
Outline: as §1

BT-474 = system: BT-474
Outline: as §1

MDA-MB-453 = system: MDA-MB-453
Outline: as §1

HCC1599 = system: HCC1599
Outline: as §1

BT-549 = system: BT-549
Outline: as §1

CAL-120 = system: CAL-120
Outline: as §1

CAL-148 = system: CAL-148
Outline: as §1

COc1cc2ncnc(Nc3ccc(F)c(Cl)c3)c2cc1OCCCN1CCOCC1 [Gefitinib]
Settings	normalised viability
BT-474, 10 nM	104% and 116%
BT-474, 1000 nM	58.7% and 65.5%
BT-474, 10000 nM	27.3% and 22.7%
BT-549, 10 nM	92.3% and 89.6%
BT-549, 1000 nM	89% and 101%
BT-549, 10000 nM	65.2% and 59.6%
CAL-51, 3 nM	107% and 110%
CAL-51, 30 nM	104% and 106%
CAL-51, 100 nM	108% and 102%
CAL-85-1, 3 nM	90.7% and 85.5%
CAL-85-1, 30 nM	84.7% and 89.6%
CAL-85-1, 100 nM	88.5% and 85.5%
CAL-120, 10 nM	76.8% and 88.1%
CAL-120, 1000 nM	76% and 85.9%
CAL-120, 10000 nM	60% and 62.1%
CAL-148, 3 nM	83% and 87.9%
CAL-148, 30 nM	96.2% and 85.9%
CAL-148, 100 nM	94.4% and 90.2%
DU-4475, 3 nM	89.8% and 92.1%
DU-4475, 30 nM	85.6% and 75.6%
DU-4475, 100 nM	99.3% and 83.1%
HCC1143, 10 nM	65.4% and 86.2%
HCC1143, 1000 nM	64.3% and 84.5%
HCC1143, 10000 nM	68.2% and 68.7%
HCC1599, 10 nM	90.8% and 106%
HCC1599, 1000 nM	75.2% and 81.4%
HCC1599, 10000 nM	64.6% and 70.1%
HCC1937, 1000 nM	101% and 100%
HCC1937, 10000 nM	61.1% and 79.5%
HDQ-P1, 3 nM	88.5% and 105%
HDQ-P1, 30 nM	87% and 110%
HDQ-P1, 100 nM	91% and 109%
Hs578T, 10 nM	100% and 105%
Hs578T, 1000 nM	91.4% and 112%
Hs578T, 10000 nM	77.4% and 74.4%
MDA-MB-231, 10 nM	83.8% and 98.3%
MDA-MB-231, 1000 nM	94.6% and 114%
MDA-MB-231, 10000 nM	81.1% and 77%
MDA-MB-436, 10 nM	90.6% and 82.3%
MDA-MB-436, 1000 nM	88.3% and 81.4%
MDA-MB-436, 10000 nM	69.9% and 62%
MDA-MB-453, 3 nM	113% and 111%
MDA-MB-453, 30 nM	85.4% and 90.8%
MDA-MB-453, 100 nM	88.2% and 89.2%
MDA-MB-468, 10 nM	97.6% and 107%
MDA-MB-468, 1000 nM	57.8% and 65.9%
MDA-MB-468, 10000 nM	38.7% and 38.4%
MFM-223, 10 nM	89.2% and 87.1%
MFM-223, 1000 nM	92.2% and 89%
MFM-223, 10000 nM	71.9% and 64.2%
SK-BR-3, 10 nM	88.1% and 97.7%
SK-BR-3, 1000 nM	67.2%
SK-BR-3, 10000 nM	20.8% and 20.5%

O=C(Nc1ccncc1)C(=O)c1cn(Cc2ccc(Cl)cc2)c2ccccc12 [Indibulin]
normalised viability [%]
Settings	3 nM	10 nM	30 nM	100 nM	1000 nM	10000 nM
BT-474	–	99.9	–	–	47.2	39.2
BT-549	–	103	–	–	31.4	23.5
CAL-51	106	–	104	102	–	–
CAL-85-1	102	–	91.3	95	–	–
CAL-120	–	85.7	–	–	35.9	28.1
CAL-148	95.4	–	92.1	94.5	–	–
DU-4475	111	–	93.7	123	–	–
HCC1143	–	80.7	–	–	41.1	41
HCC1599	–	113	–	–	124	103
HCC1937	–	74.5	–	–	21.1	23.1
HDQ-P1	90.5	–	87.7	74.8	–	–
Hs578T	–	110	–	–	56.3	18.5
MDA-MB-231	–	103	–	–	20.3	16.1
MDA-MB-436	–	111	–	–	41.4	66.3
MDA-MB-453	97.2	–	61.7	65.5	–	–
MDA-MB-468	–	95.7	–	–	49.8	36.7
MFM-223	–	112	–	–	63.7	68.5
SK-BR-3	–	94.5	–	–	19.9	20.6

NC(=O)c1ccc(I)c([N+](=O)[O-])c1 [Iniparib]
normalised viability [%]
Settings	3 nM	10 nM	30 nM	100 nM	1000 nM	10000 nM
BT-474	–	95.2	–	–	106	96.6
BT-549	–	104	–	–	112	116
CAL-51	92.6	–	92.9	96.4	–	–
CAL-85-1	91.5	–	83.8	89.5	–	–
CAL-120	–	87.3	–	–	98.6	72.7
CAL-148	85.6	–	92.8	90.2	–	–
DU-4475	84.1	–	73.9	98.8	–	–
HCC1143	–	93.6	–	–	102	91.3
HCC1599	–	88.3	–	–	88.3	89.8
HCC1937	–	86	–	–	97.4	97.6
HDQ-P1	99.3	–	104	111	–	–
Hs578T	–	115	–	–	108	109
MDA-MB-231	–	88.1	–	–	89.6	111
MDA-MB-436	–	104	–	–	116	109
MDA-MB-453	91.7	–	94.7	99.9	–	–
MDA-MB-468	–	97.9	–	–	107	91.6
MFM-223	–	93.9	–	–	99	95.4
SK-BR-3	–	89.7	–	–	104	91.5

CCc1c2c(nc3ccc(OC(=O)N4CCC(N5CCCCC5)CC4)cc13)-c1cc3c(c(=O)n1C2)COC(=O)[C@]3(O)CC [Irinotecan]
Settings	normalised viability
BT-474, 10 nM	102% and 114%
BT-474, 1000 nM	106% and 109%
BT-474, 10000 nM	97.2% and 105%
BT-549, 10 nM	80.8% and 86%
BT-549, 1000 nM	82.2% and 84.3%
BT-549, 10000 nM	71% and 62%
CAL-51, 3 nM	106% and 120%
CAL-51, 30 nM	99% and 110%
CAL-51, 100 nM	98.4% and 106%
CAL-85-1, 3 nM	94.6% and 96.1%
CAL-85-1, 30 nM	78.8% and 92.5%
CAL-85-1, 100 nM	86.4% and 103%
CAL-120, 10 nM	83.3% and 96.8%
CAL-120, 1000 nM	68.2% and 89.1%
CAL-120, 10000 nM	47.4% and 55.8%
CAL-148, 3 nM	77.4% and 98.8%
CAL-148, 30 nM	90.3% and 101%
CAL-148, 100 nM	80.5% and 99.7%
DU-4475, 3 nM	111% and 115%
DU-4475, 30 nM	87.3% and 103%
DU-4475, 100 nM	101% and 93.7%
HCC1143, 10 nM	74.2% and 87.3%
HCC1143, 1000 nM	91.4% and 95.9%
HCC1143, 10000 nM	47.7% and 62.6%
HCC1599, 10 nM	81.2% and 102%
HCC1599, 1000 nM	74.3% and 81.7%
HCC1599, 10000 nM	57.8% and 78.1%
HCC1937, 10 nM	110% and 91.4%
HCC1937, 1000 nM	54.7% and 60.4%
HCC1937, 10000 nM	27.8% and 10.4%
HDQ-P1, 3 nM	109% and 101%
HDQ-P1, 30 nM	99.4% and 104%
HDQ-P1, 100 nM	99.8% and 101%
Hs578T, 10 nM	98.6% and 100%
Hs578T, 1000 nM	83% and 95.2%
MDA-MB-231, 10 nM	85.2% and 94.5%
MDA-MB-231, 1000 nM	84.7% and 89.4%
MDA-MB-231, 10000 nM	72.8% and 78.7%
MDA-MB-436, 10 nM	89.1% and 93%
MDA-MB-436, 1000 nM	79.6% and 92.3%
MDA-MB-453, 3 nM	101% and 124%
MDA-MB-453, 30 nM	85.5% and 96.2%
MDA-MB-453, 100 nM	99.8% and 110%
MDA-MB-468, 10 nM	106% and 105%
MDA-MB-468, 1000 nM	76% and 87.3%
MDA-MB-468, 10000 nM	35.5% and 42.8%
MFM-223, 10 nM	88.5% and 97%
MFM-223, 1000 nM	100% and 99.8%
SK-BR-3, 10 nM	92.4% and 108%
SK-BR-3, 10000 nM	36.6% and 41.3%

Oc1ccc2c(c1)CC[C@H](c1ccccc1)[C@@H]2c1ccc(OCCN2CCCC2)cc1 [Lasofoxifene]
normalised viability [%]
Settings	0.3 nM	1 nM	3 nM	10 nM	100 nM	1000 nM
BT-474	–	122	–	–	114	110
BT-549	–	88.1	–	–	83.2	90.3
CAL-51	100	–	97.9	92.6	–	–
CAL-85-1	83.5	–	82.5	93	–	–
CAL-120	–	77.6	–	–	87.8	95.8
CAL-148	95.9	–	104	102	–	–
DU-4475	93.6	–	91.9	88.8	–	–
HCC1143	–	86	–	–	104	95.6
HCC1599	–	96	–	–	81.4	103
HCC1937	–	88.6	–	–	109	121
HDQ-P1	97.7	–	114	101	–	–
Hs578T	–	108	–	–	103	118
MDA-MB-231	–	93.1	–	–	95.2	95.3
MDA-MB-436	–	95.5	–	–	84.3	101
MDA-MB-453	115	–	98.3	98.9	–	–
MDA-MB-468	–	95	–	–	95.8	94.4
MFM-223	–	83.5	–	–	84	89.7
SK-BR-3	–	108	–	–	98.4	101
